In US20230128688A1, “DIRECTED CONJUGATION TECHNOLOGIES” (KLEO PHARMACEUTICALS, INC., priority 2019, published 2023):
Starred links: 1 amine or outer side, 2 acyl side, 3 side chain; linkers in the order of their positions; H or OH if unused. Positions of bridges follow the written chain, without caps; N, C: chain ends. Non-standard residues stand in square brackets, D forms with d. Residues, ends and D or L forms follow the SMILES beside them. Groups on a side chain read outwards from the residue. *: point of attachment. X2 = O=C(CCOCCOCCOCCOCCOCCOCCNC(=S)Nc1ccc2c(c1)C(=O)OC21c2ccc(O)cc2Oc2cc(O)ccc21)Oc1c(F)cc(CN*)cc1F; FITC = O=C1OC2(c3ccc(O)cc3Oc3cc(O)ccc32)c2ccc(NC(=S)*)cc21; X6 = O=C([C@H](Cc1cccc(O[*:3])c1)N[*:1])[*:2]; PEG8 = NCCOCCOCCOCCOCCOCCOCCOCCOCCC(=O)O; PEG4 = NCCOCCOCCOCCOCCC(=O)O

Assays:
[1] = test system: Cetuximab; experiment: Absorbance based DAR analysis of FITC conjugation to antibody; format: biochemical; conditions: 2.5 M eq reagent, phosphate buffer saline pH 7.4, 4 h, 25 C; Drug = FITC
Description: (§1) In some embodiments, reaction partners, e.g., compounds of formula R-I or salts thereof ere dissolved in DMSO to 5 mM stock solution.
(§2) In some embodiments, reactions are set up with 300 micrograms of antibody. In some embodiments, various conditions, including various buffers, reagent equivalents, reaction time, reaction temperature and reaction concentrations can be utilized.
(§3) In some embodiments, a useful technology is absorbance based DAR analysis. DAR (ratio of moieties of interest and target agent moieties (e.g., antibody agent moieties) was calculated for various antibody conjugates, e.g., in various reagent screening/assessment methods. Various agents comprising target binding moieties were assessed for conjugation efficiency as reaction partners with targets, e.g. protein agents such as antibody agents, compared to reagents with the same reactive groups but without target binding moieties. In various ratio determination ‘Drug’/moiety of interest is fluorescein isothiocyanate (FITC) dye conjugated to target agents, e.g., antibody agents. DAR molar ratio is defined as a ratio of moles of drug/moiety of interest to moles of target agent/antibody. Molarity is calculated from absorbance of FITC (A485) and antibody (A280) of conjugated product, and extinction coefficients of FITC and antibody using Beer-Lambert law. Correction coefficient 0.35 was used to correct for absorbance of FITC at 280 nm. Biotek Synergy H1 microplate reader and Take3 microvolume plate were used for absorbance measurements. Concentration of antibody was at least 3 mg/mL for optimal signal-to-noise in the readings. Certain target binding moieties that can provide higher DAR compared to equivalent controls (absence of target binding moieties) were selected as hits for further analysis. Certain assessment data were provided below as examples.
Reactions were set up with antibodies using 2.5 M eq of indicated reagent in phosphate buffer saline pH 7.4 for 4 h at 25° C. DAR is Drug to antibody ratio, in this case “Drug” is FITC and DAR is measured using FITC absorbance.

[2] = test system: daratumumab; experiment: as above; format: biochemical
Description: as §1, §2
As an example, one reaction is 300 microliter reaction with 1 mg/mL of antibody in PBS. Peptide I-45 (1 microliter of 5 mM stock in DMSO, 2.5 molar equivalents relative to daratumumab) was diluted in 284 microliters of PBS buffer (10 mM phosphate, 150 mM sodium chloride, pH 7.4), then 15 microliters of daratumumab (20 mg/mL stock) was added to the reaction mixture followed by incubation at room temperature in the dark. After 4 h reaction buffer was exchanged using Amicon Ultra centrifuge filter (30 KDa MWCO, 0.5 mL volume). First, glycine buffer (100 mM, pH 2.1) was used for buffer exchange to ensure dissociation of target binding moieties after reaction. Then, phosphate buffer saline (pH 7.4) was used for further buffer exchange and storage.
In another example, a reaction is 300 microliter reaction with 1 mg/mL of antibody in borate buffer. Peptide I-44 (1.2 microliter of 5 mM stock in DMSO, 3.0 molar equivalents relative to daratumumab) was diluted in 284 microliters of Borate buffer (100 mM borate, pH 8.3), then 15 microliters of daratumumab (20 mg/mL stock) was added to the reaction mixture followed by incubation at room temperature in the dark. After 20 h reaction buffer was exchanged using Amicon Ultra centrifuge filter (30 KDa MWCO, 0.5 mL volume). First, glycine buffer (100 mM, pH 2.1) was used for buffer exchange to ensure dissociation of target binding moieties after reaction. Then, phosphate buffer saline (10 mM phosphate, 150 mM sodium chloride, pH 7.4) was used for further buffer exchange and storage.
as §3

[3] = 2.5 M eq reagent, phosphate buffer saline pH 7.4, 4 h, 25 C, Drug = FITC
[4] = antibody 1 mg/mL, 2.5 M eq, 25 C, 20 h, PBS pH 7.4
[5] = antibody 1 mg/mL, 3 M eq, 25 C, 20 h, PBS pH 7.4
[6] = antibody 1 mg/mL, 3.5 M eq, 25 C, 20 h, PBS pH 7.4
[7] = antibody 4 mg/mL, 2.5 M eq, 25 C, 20 h, PBS pH 7.4
[8] = antibody 4 mg/mL, 3 M eq, 25 C, 20 h, PBS pH 7.4
[9] = antibody 4 mg/mL, 3.5 M eq, 25 C, 20 h, PBS pH 7.4
[10] = 2.5 M eq, 25 C, 4 h, PBS pH 7.4
[11] = 5 M eq reagent, phosphate buffer saline pH 7.4, 4 h, 25 C, Drug = FITC
[12] = 2.5 M eq, 25 C, 20 h, Borate pH 8.2
[13] = 2.5 M eq, 25 C, 20 h, PBS pH 7.4
[14] = 2.5 M eq, 25 C, 20 h, PBS pH 7.8
[15] = 2.5 M eq, 25 C, 20 h, PBS pH 8.0
[16] = 2.5 M eq, 25 C, 20 h, PBS pH 8.2
[17] = 2.5 M eq, 30 C, 20 h, PBS pH 7.4
[18] = 2.5 M eq, 37 C, 20 h, PBS pH 7.4

## CC(=O)NCc1cc(F)c(OC(=O)CCOCCOCCOCCOCCOCCOCCNC(=S)Nc2ccc3c(c2)C(=O)OC32c3ccc(O)cc3Oc3cc(O)ccc32)c(F)c1 [Compound I-9]
[1]
  DAR Cetuximab: 0.03
[2]; [3]
  DAR: 0.06
  DAR Daratumumab: 0.06
[2]; 10 M eq reagent, Bicarbonate buffer pH 8.3, 2 h, 37 C, Drug = FITC
  DAR: 1.10
[2]; [4]
  DAR: 0.19
[2]; [5]
  DAR: 0.18
[2]; [6]
  DAR: 0.24
[2]; [7]
  DAR: 0.37
[2]; [8]
  DAR: 0.49
[2]; [9]
  DAR: 0.44

## CCNC(=O)c1ccc(OC(=O)CCOCCOCCOCCOCCOCCOCCNC(=S)Nc2ccc3c(c2)C(=O)OC32c3ccc(O)cc3Oc3cc(O)ccc32)c(F)c1 [Compound I-18]
[1]
  DAR Cetuximab: 0.04
[2]; [3]
  DAR: 0.05
  DAR Daratumumab: 0.05
[2]; 2.5 M eq, 25 C, 4 h, Acetate pH 6.2
  DAR: 0.08
[2]; 2.5 M eq, 25 C, 4 h, Borate pH 8.3
  DAR: 0.35
[2]; [10]
  DAR: 0.05
[2]; [11]
  DAR: 0.15
[2]; 5 M eq, 25 C, 4 h, Acetate pH 6.2
  DAR: 0.14
[2]; 5 M eq, 25 C, 4 h, Borate pH 8.3
  DAR: 0.42
[2]; 5 M eq, 25 C, 4 h, PBS pH 7.4
  DAR: 0.08
[2]; 10 M eq, 25 C, 2 h, Acetate pH 6.2
  DAR: 0.12
[2]; 10 M eq, 25 C, 4 h, Borate pH 8.3
  DAR: 0.77
[2]; 10 M eq, 25 C, 4 h, PBS pH 7.4
  DAR: 0.15

## CC(=O)N[C@@H](CC(=O)O)C(=O)N[C@H]1CSSC[C@@H](C(=O)N[C@H](C(=O)O)[C@@H](C)O)NC(=O)[C@H](Cc2c[nH]c3ccccc23)NC(=O)[C@H](C(C)C)NC(=O)[C@H](CC(C)C)NC(=O)[C@H](CCC(=O)O)NC(=O)CNC(=O)[C@H](CC(C)C)NC(=O)[C@H](CC(=O)NCc2ccc(OC(=O)CCOCCOCCOCCOCCOCCOCCNC(=S)Nc3ccc4c(c3)C(=O)OC43c4ccc(O)cc4Oc4cc(O)ccc43)cc2)NC(=O)[C@H](Cc2c[nH]c3ccccc23)NC(=O)[C@H](C)NC1=O [Compound I-43]
[2]; [3]
  DAR: 0.26

## CC(=O)N[C@@H](CC(=O)O)C(=O)N[C@H]1CSSC[C@@H](C(=O)N[C@H](C(=O)O)[C@@H](C)O)NC(=O)[C@H](Cc2c[nH]c3ccccc23)NC(=O)[C@H](C(C)C)NC(=O)[C@H](CC(C)C)NC(=O)[C@H](CCC(=O)O)NC(=O)CNC(=O)[C@H](CC(C)C)NC(=O)[C@H](CC(=O)NCc2ccc(OC(=O)CCOCCOCCOCCOCCOCCOCCOCCOCCNC(=S)Nc3ccc4c(c3)C(=O)OC43c4ccc(O)cc4Oc4cc(O)ccc43)c(F)c2)NC(=O)[C@H](Cc2c[nH]c3ccccc23)NC(=O)[C@H](C)NC1=O [Compound I-44]
[2]; [3]
  DAR: 0.59
[2]; [10]
  DAR: 0.59
  Fold (DAR I-44 over I-10): 7.79
[2]; [12]
  DAR: 1.42
  Fold (DAR I-44 over I-10): 6.83
[2]; [13]
  DAR: 1.09
  Fold (DAR I-44 over I-10): 16.08
[2]; [14]
  DAR: 1.00
  Fold (DAR I-44 over I-10): 6.58
[2]; [15]
  DAR: 0.99
  Fold (DAR I-44 over I-10): 15.39
[2]; [16]
  DAR: 1.14
  Fold (DAR I-44 over I-10): 36.42
[2]; [17]
  DAR: 1.15
  Fold (DAR I-44 over I-10): 21.43
[2]; [18]
  DAR: 1.66
  Fold (DAR I-44 over I-10): 9.77
[2]; FIG. 16 (e): Borate buffer pH 8.2, 25 C, 20 h, 2.5 M eq
  FITC DAR: 0.21

## CC(=O)NCC(=O)N[C@@H](CO)C(=O)N[C@@H](Cc1ccc(O)cc1)C(=O)N[C@@H](Cc1c[nH]c2ccccc12)C(=O)N[C@@H](Cc1ccc(O)cc1)C(=O)N[C@@H](CC(=O)O)C(=O)N[C@H](C(=O)N[C@@H](Cc1c[nH]c2ccccc12)C(=O)N[C@@H](Cc1ccccc1)C(=O)NCCOCCOCCOCCOCCC(=O)NCc1cc(F)c(OC(=O)CCOCCOCCOCCOCCOCCOCCNC(=S)Nc2ccc3c(c2)C(=O)OC32c3ccc(O)cc3Oc3cc(O)ccc32)c(F)c1)C(C)C [Compound I-45] (Ac-GSYWYDVWF[PEG4]-X2)
[1]
  DAR Cetuximab: 0.70
[2]; [3]
  DAR: 0.64
  DAR Daratumumab: 0.64
[2]; [4]
  DAR: 0.90
  Fold (DAR I-45 over I-9): 4.78
[2]; [5]
  DAR: 0.96
  Fold (DAR I-45 over I-9): 5.31
[2]; [6]
  DAR: 1.06
  Fold (DAR I-45 over I-9): 4.39
[2]; [7]
  DAR: 1.04
  Fold (DAR I-45 over I-9): 2.81
[2]; [8]
  DAR: 1.09
  Fold (DAR I-45 over I-9): 2.23
[2]; [9]
  DAR: 1.06
  Fold (DAR I-45 over I-9): 2.40
[2]; sample (a) of FIG. 12 / FIG. 13
  FITC DAR: 0.43

## CC(=O)N[C@@H](CC(=O)O)C(=O)N[C@H]1CSSC[C@@H](C(=O)N[C@H](C(=O)O)C(C)C)NC(=O)[C@H](Cc2c[nH]c3ccccc23)NC(=O)[C@H](C(C)C)NC(=O)[C@H](CC(C)C)NC(=O)[C@H](CCC(=O)O)NC(=O)CNC(=O)[C@H](CC(C)C)NC(=O)[C@H](Cc2cccc(OC(=O)CCOCCOCCOCCOCCOCCOCCOCCOCCNC(=S)Nc3ccc4c(c3)C(=O)OC43c4ccc(O)cc4Oc4cc(O)ccc43)c2)NC(=O)[C@H](Cc2c[nH]c3ccccc23)NC(=O)[C@H](C)NC1=O [Compound I-46] (Ac-DCAW[X6]([PEG8-FITC])LGELVWCV-OH; disulfide 2-12)
[2]; [11]
  DAR: 0.15
[2]; 30 M eq reagent, borate buffer pH 8.3, 20 h, 37 C, Drug = FITC
  DAR: 0.43
